Laboratory results published in patent publication US12209081B2 (Katholieke Universiteit Leuven, priority 2020, dated 2025).
pIC50: −log10 of the molar value.

Molecular target: mouse TRPM3α2 (mTRPM3) ion channel (Mus musculus (Mouse), UniProt J9SQF3)
Assay: TRPM3 ion channel driven Ca2+ uptake, Fluo-4 AM assay, mTRPM3alpha2 overexpressing flip-in HEK293 cells stimulated with pregnenolone sulfate
Type: cell-based
Details: PS 50 μM, cpds 200-299
How it was run: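 Flip-in HEK293 cells loaded with Fluo-4 AM were added to plates holding compound plus 50 μM pregnenolone sulfate in Ca2+-containing Krebs buffer. Fluorescence (ex 485/em 535 nm) read directly after cell addition; % inhibition relative to PS-stimulated vehicle and positive-control inhibitor.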

Sequence of mouse TRPM3α2 (mTRPM3) ion channel (J9SQF3 other isoform, or with tags, fused parts or gaps): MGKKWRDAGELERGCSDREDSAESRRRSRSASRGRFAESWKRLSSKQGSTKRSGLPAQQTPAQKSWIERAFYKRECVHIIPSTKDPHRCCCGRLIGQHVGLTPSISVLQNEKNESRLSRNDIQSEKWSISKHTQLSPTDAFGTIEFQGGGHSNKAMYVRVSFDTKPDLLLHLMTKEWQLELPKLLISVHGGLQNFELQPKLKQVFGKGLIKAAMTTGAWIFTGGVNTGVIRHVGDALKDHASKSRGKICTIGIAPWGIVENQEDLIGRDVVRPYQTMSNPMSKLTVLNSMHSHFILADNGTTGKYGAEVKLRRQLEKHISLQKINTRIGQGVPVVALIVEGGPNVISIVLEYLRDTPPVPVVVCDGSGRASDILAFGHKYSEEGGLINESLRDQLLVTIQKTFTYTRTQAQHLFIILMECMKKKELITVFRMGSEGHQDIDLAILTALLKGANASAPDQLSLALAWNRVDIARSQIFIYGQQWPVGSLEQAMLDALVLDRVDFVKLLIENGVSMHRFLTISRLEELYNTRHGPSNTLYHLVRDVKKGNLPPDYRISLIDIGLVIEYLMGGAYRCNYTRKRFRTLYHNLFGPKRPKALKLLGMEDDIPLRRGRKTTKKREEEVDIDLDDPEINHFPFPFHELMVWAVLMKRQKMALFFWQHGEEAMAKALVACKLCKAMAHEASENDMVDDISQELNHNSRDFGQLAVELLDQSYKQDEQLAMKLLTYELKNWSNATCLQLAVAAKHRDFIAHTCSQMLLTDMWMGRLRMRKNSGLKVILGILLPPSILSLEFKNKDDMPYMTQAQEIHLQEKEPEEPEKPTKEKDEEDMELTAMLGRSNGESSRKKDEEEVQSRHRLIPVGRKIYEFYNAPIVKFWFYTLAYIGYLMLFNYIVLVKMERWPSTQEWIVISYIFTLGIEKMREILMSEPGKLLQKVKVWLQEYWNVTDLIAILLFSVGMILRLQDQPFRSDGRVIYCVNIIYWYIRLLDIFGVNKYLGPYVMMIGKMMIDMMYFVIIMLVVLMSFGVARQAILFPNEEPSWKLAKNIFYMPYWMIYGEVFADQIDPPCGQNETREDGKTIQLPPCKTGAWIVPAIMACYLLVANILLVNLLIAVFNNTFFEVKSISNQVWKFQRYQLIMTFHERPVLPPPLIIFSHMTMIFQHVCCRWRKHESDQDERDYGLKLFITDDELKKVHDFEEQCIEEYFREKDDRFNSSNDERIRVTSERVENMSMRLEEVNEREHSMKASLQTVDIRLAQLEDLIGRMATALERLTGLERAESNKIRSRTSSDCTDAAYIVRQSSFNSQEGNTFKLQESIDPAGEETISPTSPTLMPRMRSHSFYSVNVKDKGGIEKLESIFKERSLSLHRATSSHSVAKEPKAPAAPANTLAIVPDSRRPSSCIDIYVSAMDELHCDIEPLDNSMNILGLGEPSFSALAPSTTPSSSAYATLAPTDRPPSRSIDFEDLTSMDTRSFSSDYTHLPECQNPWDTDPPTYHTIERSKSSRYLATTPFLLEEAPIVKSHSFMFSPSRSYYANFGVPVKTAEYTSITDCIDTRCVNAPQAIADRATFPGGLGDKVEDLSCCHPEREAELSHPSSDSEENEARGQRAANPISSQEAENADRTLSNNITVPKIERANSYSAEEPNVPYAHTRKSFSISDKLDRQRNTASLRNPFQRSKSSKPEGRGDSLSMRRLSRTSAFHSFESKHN

SMILES	IC50 [µM]
Cc1oc2ccc(OCc3cccnc3C(F)(F)F)cc2c1C(=O)NC1(CO)CC1 [compound 200, N-(1-(hydroxymethyl)cyclopropyl)-2-methyl-5-((2-(trifluoromethyl)pyridin-3-yl)methoxy) -benzofuran-3-carboxamide]	< 1
Cc1oc2ccc(OCc3nccn3C)cc2c1C(=O)NC1(CO)CCOCC1 [compound 204, N-(4-(hydroxymethyl)tetrahydro-2H-pyran-4-yl)-2-methyl-5-((1-methyl-1H-imidazol-2-yl) -methoxy)benzofuran-3-carboxamide]	< 1
CCOc1ncccc1COc1ccc2oc(C)c(C(=O)NC3(CO)CCOCC3)c2c1 [compound 206, 5-((2-ethoxypyridin-3-yl)methoxy)-N-(4-(hydroxymethyl)tetrahydro-2H-pyran-4-yl)-2-methyl-benzofuran-3-carboxamide]	< 1
Cc1ncsc1COc1ccc2oc(C)c(C(N)=O)c2c1 [compound 232, 2-methyl-5-((4-methylthiazol-5-yl)methoxy)benzofuran-3-carboxamide]	< 1
Cc1ncsc1COc1ccc2oc(C)c(C(=O)N[C@H](C)C(N)=O)c2c1 [compound 271, (R)-N-(1-amino-1-oxopropan-2-yl)-2-methyl-5-((4-methylthiazol-5-yl)methoxy)benzofuran-3-carboxamide]	< 1
Cc1ncsc1COc1ccc2oc(C)c(C(=O)N[C@@H](CS(C)(=O)=O)C(N)=O)c2c1 [compound 272, (R)-N-(1-amino-3-(methylsulfonyl)-1-oxopropan-2-yl)-2-methyl-5-((4-methylthiazol-5-yl)methoxy)benzofuran-3-carboxamide]	< 1
Cc1ncsc1COc1ccc2oc(C)c(C(=O)N[C@@H](C(N)=O)C(C)C)c2c1 [compound 273, (R)-N-(1-amino-3-methyl-1-oxobutan-2-yl)-2-methyl-5-((4-methylthiazol-5-yl)methoxy)benzofuran-3-carboxamide]	< 1

More lines, now with the values ahead:

IC50 [µM]	SMILES
< 1	Cc1ncc(COc2ccc3oc(C)c(C(=O)N[C@H](CO)CS(C)(=O)=O)c3c2)s1 [compound 274, (R)-N-(1-hydroxy-3-(methylsulfonyl)propan-2-yl)-2-methyl-5-((2-methylthiazol-5-yl)methoxy)benzofuran-3-carboxamide]
< 1	Cc1ncsc1COc1ccc2oc(C)c(C(=O)N[C@H](CO)CS(C)(=O)=O)c2c1 [compound 275]
< 1	CNC(=O)[C@@H](CO)NC(=O)c1c(C)oc2ccc(OCc3scnc3C)cc12 [compound 276, (R)-N-(3-hydroxy-1-(methylamino)-1-oxopropan-2-yl)-2-methyl-5-((4-methylthiazol-5-yl)methoxy)benzofuran-3-carboxamide]
< 1	Cc1ncc(COc2ccc3oc(C)c(C(=O)N[C@@H](CO)C(=O)N(C)C)c3c2)s1 [compound 278, (S)-N-(1-(dimethylamino)-3-hydroxy-1-oxopropan-2-yl)-2-methyl-5-((2-methylthiazol-5-yl)methoxy)benzofuran-3-carboxamide]
< 1	Cc1ncsc1COc1ccc2oc(C)c(C(=O)N[C@@H](C)C(N)=O)c2c1 [compound 279, (S)-N-(1-amino-1-oxopropan-2-yl)-2-methyl-5-((4-methylthiazol-5-yl)methoxy)benzofuran-3-carboxamide]
< 1	Cc1oc2ccc(OCc3cccnc3C(F)(F)F)cc2c1C(=O)N[C@@H](CO)C(N)=O [compound 280, (S)-N-(1-amino-3-hydroxy-1-oxopropan-2-yl)-2-methyl-5-((2-(trifluoromethyl)pyridin-3-yl)methoxy)benzofuran-3-carboxamide]
< 1	Cc1oc2ccc(OCc3cnc(C(F)(F)F)s3)cc2c1C(=O)N[C@@H](CO)C(N)=O [compound 281, (S)-N-(1-amino-3-hydroxy-1-oxopropan-2-yl)-2-methyl-5-((2-(trifluoromethyl)thiazol-5-yl)methoxy)benzofuran-3-carboxamide]
< 1	Cc1nc(C(F)(F)F)c(COc2ccc3oc(C)c(C(=O)N[C@@H](CO)C(N)=O)c3c2)s1 [compound 282, (S)-N-(1-amino-3-hydroxy-1-oxopropan-2-yl)-2-methyl-5-((2-methyl-4-(trifluoromethyl)thiazol-5-yl)methoxy)benzofuran-3-carboxamide]
< 1	Cc1ncc(COc2ccc3oc(C)c(C(=O)N[C@@H](CO)C(N)=O)c3c2)o1 [compound 283, (S)-N-(1-amino-3-hydroxy-1-oxopropan-2-yl)-2-methyl-5-((2-methyloxazol-5-yl)methoxy)benzofuran-3-carboxamide]
< 1	Cc1ncccc1COc1ccc2oc(C)c(C(=O)N[C@@H](CO)C(N)=O)c2c1 [compound 284, (S)-N-(1-amino-3-hydroxy-1-oxopropan-2-yl)-2-methyl-5-((2-methylpyridin-3-yl)methoxy)benzofuran-3-carboxamide]
< 1	Cc1nc(COc2ccc3oc(C)c(C(=O)N[C@@H](CO)C(N)=O)c3c2)cs1 [compound 285, (S)-N-(1-amino-3-hydroxy-1-oxopropan-2-yl)-2-methyl-5-((2-methylthiazol-4-yl)methoxy)benzofuran-3-carboxamide]
< 1	Cc1oc2ccc(OCc3c[nH]nc3C(F)(F)F)cc2c1C(=O)N[C@@H](CO)C(N)=O [compound 286, (S)-N-(1-amino-3-hydroxy-1-oxopropan-2-yl)-2-methyl-5-((3-(trifluoromethyl)-1H-pyrazol-4-yl)methoxy)benzofuran-3-carboxamide]
< 1	Cc1ccncc1COc1ccc2oc(C)c(C(=O)N[C@@H](CO)C(N)=O)c2c1 [compound 287]

Same assay, conditions: PS (50 μM) stimulated, cpd 001-199

pIC50	SMILES
> 6.00	Cc1oc2ccc(OCc3cccnc3C(F)(F)F)cc2c1C(=O)Nc1cn[nH]c1 [compound 158, 2-methyl-N-(1H-pyrazol-4-yl)-5-((2-(trifluoromethyl)pyridin-3-yl)methoxy)benzofuran-3-carboxamide]
> 6.00	Cc1ncsc1COc1ccc2oc(C)c(C(=O)Nc3ccn(C)n3)c2c1 [compound 161, 2-methyl-N-(1-methyl-1H-pyrazol-3-yl)-5-((4-methylthiazol-5-yl)methoxy)benzofuran-3-carboxamide]
> 6.00	Cc1ncsc1COc1ccc2oc(C)c(C(=O)NC3CCN(CC(F)(F)F)CC3)c2c1 [compound 166, 2-methyl-5-((4-methylthiazol-5-yl)methoxy)-N-(1-(2,2,2-trifluoroethyl)piperidin-4-yl)benzofuran-3-carboxamide]
> 6.00	Cc1oc2ccc(OCc3cccnc3C(F)(F)F)cc2c1C(=O)NC1CC2(COC2)C1 [compound 167, 2-methyl-N-(2-oxaspiro[3.3]heptan-6-yl)-5-((2-(trifluoromethyl)pyridin-3-yl)methoxy)benzofuran-3-carboxamide]
> 6.00	Cc1oc2ccc(OCc3cccnc3C(F)(F)F)cc2c1C(=O)NC1CCN(CC(F)(F)F)CC1 [compound 168, 2-methyl-N-(1-(2,2,2-trifluoroethyl)piperidin-4-yl)-5-((2-(trifluoromethyl)pyridin-3-yl)methoxy) -benzofuran-3-carboxamide]
> 6.00	Cc1oc2ccc(OCc3cccnc3C(F)(F)F)cc2c1C(=O)OCC1(N)CCOC1 (centres unmarked) [compound 170, (3-aminotetrahydrofuran-3-yl)methyl 2-methyl-5-((2-(trifluoromethyl)pyridin-3-yl)methoxy) -benzofuran-3-carboxylate]
> 6.00	Cc1ncsc1COc1ccc2oc(C)c(C(=O)Nc3ccnn3C)c2c1 [compound 171, 2-methyl-N-(1-methyl-1H-pyrazol-5-yl)-5-((4-methylthiazol-5-yl)methoxy)benzofuran-3-carboxamide]
> 6.00	Cc1oc2ccc(OCc3cccnc3C(F)(F)F)cc2c1C(=O)NC1CC2(CNC2)C1 [compound 173, 2-methyl-N-(2-azaspiro[3,3]heptan-6-yl)-5-((2-(trifluoromethyl)pyridin-3-yl)methoxy)benzofuran-3-carboxamide]
> 6.00	Cc1ncsc1COc1cc2c(C(=O)NC3(CO)CCOCC3)c(C)oc2cc1Cl [compound 174, 6-chloro-N-(4-(hydroxymethyl)tetrahydro-2H-pyran-4-yl)-2-methyl-5-((4-methylthiazol-5-yl) -methoxy)benzofuran-3-carboxamide]
> 6.00	Cc1oc2ccc(OCc3cccnc3C(F)(F)F)cc2c1C(=O)N[C@@H]1CN(C(=O)OCC(F)(F)F)CC1(F)F [compound 175, 2,2,2-trifluoroethyl (R)-3,3-difluoro-4-(2-methyl-5-((2-(trifluoromethyl)pyridin-3-yl)methoxy) -benzofuran-3-carboxamido)pyrrolidine-1-carboxylate]
> 6.00	Cc1ncsc1COc1ccc2oc(C)c(C(=O)NC3(CO)CCOCC3)c2c1F [compound 177, 4-fluoro-N-(4-(hydroxymethyl)tetrahydro-2H-pyran-4-yl)-2-methyl-5-((4-methylthiazol-5-yl) -methoxy)benzofuran-3-carboxamide]
> 6.00	Cc1ncsc1COc1cc2c(C(=O)NC3(CO)CCOCC3)c(C)oc2cc1F [compound 182, 6-fluoro-N-(4-(hydroxymethyl)tetrahydro-2H-pyran-4-yl)-2-methyl-5-((4-methylthiazol-5-yl)methoxy)benzofuran-3-carboxamide]
< 4.70	Cc1ncsc1COc1ccc2oc(C)c(C(=O)n3ccc(N)n3)c2c1 [compound 192, (3-amino-1H-pyrazol-1-yl) (2-methyl-5-((4-methylthiazol-5-yl)methoxy)benzofuran-3-yl) -methanone]
< 4.70	Cc1ncsc1COc1ccc2oc(C)c(C(=O)NC3(CO)CCOCC3)c2c1C#N [compound 193]
< 4.70	Cc1ncsc1COc1cc2c(C(=O)NC3(CO)CCOCC3)c(C)oc2cc1C#N [compound 194, 6-cyano-N-(4-(hydroxymethyl)tetrahydro-2H-pyran-4-yl)-2-methyl-5-((4-methylthiazol-5-yl) -methoxy)benzofuran-3-carboxamide]
